Reference: patent US10501800B2, “Breast cancer prognosis” (Regents of the University of Minnesota, priority 2012, dated 2019)
“Also recorded” adds a separate entry of the source.

What was measured:
[1] = system: PR target genes (MSX2, RGS2, MAP1A, PDK4) in MCF-7 cells; assay: RT-qPCR of PR target genes in MCF-7 cells stably expressing WT or KR PR; assay type: cell-based, human; conditions: R5020 10^−8 M plus RU486 10^−7 M, 6 h
[2] = system: PR target genes (CHN2, RGS2, ACOT6) in BT-474 human breast cancer cells; assay: RT-qPCR of PR target genes in BT-474 cells, with or without MEK inhibitor; assay type: cell-based; conditions: R5020 10^−8 M plus RU486 10^−7 M, 6 h
Protocol: For reverse transcription quantitative polymerase chain reaction (RT-qPCR) assays, 5×10^5 cells/well were plated in 6-well dishes, serum starved in modified IMEM for 1 day before treatments (see individual figures). RNA was extracted using TriPure reagent (Roche, catalog #11667157001) and cDNA was created using the Transcriptor cDNA first-strand cDNA synthesis kit (Roche, catalog #04897030001). Relative expression levels were determined by qPCR assays performed on a Roche LightCycler II using SYBR green master-mix (Roche, catalog #04887352001). Target gene quantification levels were normalized to the expression of standard housekeeper genes: TBP, ACTB, and/or GAPDH. For cells expressing inducible PR, the protocol was the same as above, except prior to ligand treatments, the cells were induced with AP21967 (10^−9 M) for 2 d.
For experiments using MEK inhibitors, BT-474 cells were plated in […] dishes at 5×10^5 cells/well. One day later, the cells were washed and serum starved in modified IMEM for 1d. These cells were pre-treated with the MEK inhibitor U0126 (5 uM, EMD Chemicals, catalog #662005) for 30 min R5020 (10^−8 M) and/or RU486 (10^−7 M) was then added to cell culture wells for 6 h before RNA/protein isolation and RT-qPCR/western blotting was performed, as described above.

BT-474 cells = assay: MTT proliferation assay in BT-474 cells; assay type: cell-based, human; conditions: MTT assays over six days in vitro; data not shown
Protocol: Cell proliferation was measured using MTT assays (3-[4,5-dimethylthiazol-2-yl]-2,5-diphenyltetrazolium bromide, Sigma catalog #M2128). In 24-well plates, 1×10^4 cells/well were plated in cMEM (inducible PR expression was induced with AP21967 (10^−9 M) for 2 days), cells were washed and steroid starved in modified IMEM supplemented with 5% dextran-coated charcoal-treated (DCC) FBS for 1 day before the addition of R5020 (10^−8 M). At days 0, 2, 4, 6, cell proliferation was determined by adding 60 ul MTT (5 mg/ml) to each 0.5 ml cell culture well for 3 hours, medium was carefully removed and solublization solution (90% v/v DMSO/PBS) was added to lyse the cells. Lysate absorbance (650 and 570 nm) was measured using a plate reader. 650 nm measurements were subtracted from 570 nm measurements and sample means were normalized to day zero.

[3] = system: PR target genes in T47D cells expressing WT PR, SUMO-deficient PR (KR) or empty vector; assay: Gene expression profiling (Illumina HT-12v4) of T47D cell lines treated with progesterone or antiprogestins; assay type: cell-based, human
Protocol: T47D cells stably expressing pIRES-neo3 empty vector, WT or KR PR were serum starved in modified IMEM (Gibco, catalog #A10488) for 1 day, treated with R5020 (10^−8 M) or vehicle control for 6 h before RNA extraction using a RNeasy kit (QIAgen, catalog #74104). Six h of progestin treatment allowed for substantial PR-dependent gene expression as compared to prior studies (Jacobsen et al., 2005; Richer et al., 2002). DNase I treated (QIAgen, catalog #79254) RNA samples from duplicate experiments were prepared for expression analysis using the Illumina HT-12v4 bead chip platform according to manufacture's protocols. Data were analyzed within R software using the Bioconductor (Gentleman et al., 2004) package called lumi where raw intensities were log2 transformed and quantile normalized. Differentially expressed genes were analyzed using the limma package, where empirical Bayes was used to better estimate the variance of the genes. Gene expression data presented contain log2 normalized intensities and biological comparisons presented (e.g. R5020/vehicle) contain log2 fold change with the Benjamini and Hochberg (BH) adjusted P value (Benjamini and Hochberg, 1995). To generate the heat map in FIG. 1C, unsupervised hierarchical clustering of genes was carried out using heatmap. 2 function in the R package gplots. Clustering was performed using Euclidean distance and complete linkage. Rows were scaled to have mean zero and standard deviation equal to one.
Gene expression profiles in T47D cell lines treated with antiprogestins were obtained using identical methods as described above, except for these notable differences. After serum starvation, cells stably expressing empty vector, WT, or KR PR were treated for 6 hours under one of eight possible conditions: (1) ethanol (vehicle control), (2) progesterone (10^−8 M), (3) RU486 (10^−7 M), (4) aglepristone (10^−7 M), (5) onapristone (10^−7 M), (6) RU486 (10^−7 M) plus progesterone (10^−8 M), (7) aglepristone (10^−7 M) plus progesterone (10^−8 M), or (8) onapristone (10^−7 M) plus progesterone (10^−8 M). Gene expression levels were measured, normalized, analyzed, and heat maps were generated using the methods described above.
Raw microarray data from two independent microarray experiments (both performed using the Illumina HT-12v4 platform described above) were combined and normalized together within R software using the Bioconductor (Gentleman et al., 2004) package called lumi where raw intensities were log 2 transformed and quantile normalized.
Sample Sizes & Composition: For the first analysis, two KR cell replicates were used that had been stimulated with R5020 a synthetic progestin in the first experiment and three KR cell replicates that had been stimulated with progesterone in the second experiment. The same was accomplished regarding the corresponding WT cell replicates. Pertaining to the first analysis, therefore, a sample size of n=5 was used for each of the two groups (KR & WT). Regarding the second analysis, we used three KR cell replicates that had been co-treated with progesterone plus onapristone in the second experiment; and we used three WT cell replicates that had been co-treated with progesterone plus onapristone also in the second experiment (n=3 for each of the two groups). Regarding the third analysis, we used three KR cell replicates that had been co-treated with progesterone plus RU486 in the second experiment; and we used three WT cell replicates that had been co-treated with progesterone plus RU486 also in the second experiment (n=3 for each of the two groups). Regarding the fourth analysis, three KR cell replicates was used that had been co-treated with progesterone plus onapristone; and three WT cell replicates were used that had been treated with vehicle control (ethanol) (n=3 for each of the two groups). […]

BT-474 tumor = conditions: xenograft models; cited from earlier work
breast cancer = conditions: in vivo; cited from earlier work

CC#C[C@]1(O)CC[C@H]2[C@@H]3CCC4=CC(=O)CCC4=C3[C@@H](c3ccc(N(C)C)cc3)C[C@@]21C [RU486, (10S,11S,14S,15S,17R)-17-[4-(dimethylamino)phenyl]-14-hydroxy-15-methyl-14-(prop-1-yn-1-yl)tetracyclo[8.7.0.0^ {2,7}.0^{11,15}]heptadeca-1,6-dien-5-one]
R5020-induced mRNA expression of MSX2, RGS2, MAP1A and PDK4 [1]: completely abolished
R5020-induced expression of CHN2, RGS2 and ACOT6 [2]: entirely blocked
BT-474 cell proliferation (BT-474 cells): significantly blocks
expression of progesterone-regulated PR target genes ([3]; T47D cells expressing SUMO-deficient PR (KR), antiprogestin 10^−7 M alone or plus progesterone 10^−8 M, 6 h): caused many PR target genes to become upregulated
number of genes significantly differentially expressed between KR and WT cells ([3]; both cell lines co-treated with progesterone plus the antiprogestin): 7 genes
significant differential expression of the 15 biomarker genes between KR and WT cells ([3]; both cell lines co-treated with progesterone plus the antiprogestin, with the exception of one gene (CDH10)): completely annulled
agonistic activity ([3]; cells expressing hyperactive / SUMO-deficient PR (KR)): substantial agonistic activity; also recorded: agonistic properties
BT-474 tumor growth (BT-474 tumor): dramatically inhibits
outcome of phase II clinical trials as a breast cancer treatment (breast cancer): unsuccessful
